Assay results reported in ChEMBL document CHEMBL2016485, “Design and optimization of quinazoline derivatives as melanin concentrating hormone receptor 1 (MCHR1) antagonists: part 2” (Bioorg Med Chem Lett, 2012).
In brackets after ≈: the same amount, converted by molar mass.

Columns and labels:
[1] = Cmax in mouse at 30 mg/kg, po relative to initial plasma concentration; type: ADME, organism-based; set-up: dose 30 mg/kg, route oral
[2] = Cmax at steady state in diet-induced obese C57BL/6J mouse model plasma at 100 mg/kg, po qd dosed through CMC/Tween 80 suspension for 14 days measured at day 14; type: ADME, organism-based; set-up: dose 100 mg/kg, route oral
[3] = Solubility in fasted state simulated intestinal fluid at pH 6.5 at 0.5 hrs; type: physicochemical
[4] = AUC at steady state in diet-induced obese C57BL/6J mouse model brain at 100 mg/kg, po qd dosed through CMC/Tween 80 suspension for 14 days measured at day 14; type: ADME, organism-based; set-up: dose 100 mg/kg, route oral
[5] = Cmax at steady state in diet-induced obese C57BL/6J mouse model brain at 100 mg/kg, po qd dosed through CMC/Tween 80 suspension for 14 days measured at day 14; type: ADME, organism-based; set-up: dose 100 mg/kg, route oral
[6] = AUC at steady state in diet-induced obese C57BL/6J mouse model plasma at 100 mg/kg, po qd dosed through CMC/Tween 80 suspension for 14 days measured at day 14; type: ADME, organism-based; set-up: dose 100 mg/kg, route oral
[7] = AUC (0 to 24 hrs) in mouse at 30 mg/kg, po; type: ADME, organism-based; set-up: time < 24 hr, dose 30 mg/kg, route oral; conditions: plasma
[8] = Cmax in rat at 30 mg/kg, po relative to initial plasma concentration; type: ADME, organism-based; set-up: dose 30 mg/kg, route oral
[9] = AUC (0 to 24 hrs) in rat at 30 mg/kg, po; type: ADME, organism-based; set-up: time < 24 hr, dose 30 mg/kg, route oral; conditions: plasma
[10] = Cmax at steady state in diet-induced obese C57BL/6J mouse model plasma at 30 mg/kg, po bid dosed through micronized suspension for 14 days measured at day 14; type: ADME, organism-based; set-up: dose 30 mg/kg, route oral
[11] = AUC at steady state in diet-induced obese C57BL/6J mouse model brain at 30 mg/kg, po bid dosed through micronized suspension for 14 days measured at day 14; type: ADME, organism-based; set-up: dose 30 mg/kg, route oral
[12] = Cmax at steady state in diet-induced obese C57BL/6J mouse model brain at 30 mg/kg, po bid dosed through micronized suspension for 14 days measured at day 14; type: ADME, organism-based; set-up: dose 30 mg/kg, route oral
[13] = AUC at steady state in diet-induced obese C57BL/6J mouse model plasma at 30 mg/kg, po bid dosed through micronized suspension for 14 days measured at day 14; type: ADME, organism-based; set-up: dose 30 mg/kg, route oral
[14] = Cmax in dog at 5 mg/kg, po relative to initial plasma concentration; type: ADME, organism-based, Canis lupus familiaris; set-up: dose 5 mg/kg, route oral
[15] = Cmax in beagle dog at 6 mg/kg, iv; type: ADME, organism-based, Canis lupus familiaris; set-up: dose 6 mg/kg, route intravenous; conditions: in vivo
[16] = AUC (0 to 24 hrs) in dog at 6 mg/kg, iv; type: ADME, organism-based, Canis lupus familiaris; set-up: time < 24 hr, dose 6 mg/kg, route intravenous; conditions: plasma
[17] = AUC (0 to 24 hrs) in dog at 5 mg/kg, po; type: ADME, organism-based, Canis lupus familiaris; set-up: time < 24 hr, dose 5 mg/kg, route oral; conditions: plasma
[18] = Cmax in dog at 6 mg/kg, iv relative to initial plasma concentration; type: ADME, organism-based, Canis lupus familiaris; set-up: dose 6 mg/kg, route intravenous

| SMILES | solubility at 0.5 h [3] | Cmax [8] | AUC(0-t) at 24 h [9] | Cmax [10] | AUC at 336 h [11] | Cmax [12] | AUC at 336 h [13] | other results |
| --- | --- | --- | --- | --- | --- | --- | --- | --- |
| Cc1nc(N2CCC(O)(C3CC3)CC2)nc2ccc(NC(=O)/C=C/c3ccc(Cl)cc3)cc12 | 1.7 µM (≈ 0.787 µg/mL) | 2.4 µM | 26.6 µM·h |  |  |  |  | Cmax [1]: 2100 nM; Cmax [2]: 5.9 µM; AUC at 336 h [4]: 30.2 µM·h; Cmax [5]: 2100 nM; AUC at 336 h [6]: 104 µM·h; AUC(0-t) at 24 h [7]: 33.4 µM·h |
| CS(=O)(=O)O.Cc1nc(N2CCC(O)(C3CC3)CC2)nc2ccc(NC(=O)/C=C/c3ccc(Cl)cc3)cc12 | 11.2 µM | 7.8 µM | 79.6 µM·h |  |  |  |  | Cmax [14]: 2500 nM; Cmax [15]: 6.4 µM; AUC(0-t) at 24 h [16]: 43.5 µM·h; AUC(0-t) at 24 h [17]: 37.7 µM·h; Cmax [18]: 9.9 µM |

Now from value to compound, other results behind:

| solubility at 0.5 h [3] | Cmax [8] | AUC(0-t) at 24 h [9] | Cmax [10] | AUC at 336 h [11] | Cmax [12] | AUC at 336 h [13] | SMILES | other results |
| --- | --- | --- | --- | --- | --- | --- | --- | --- |
|  |  |  | 16.5 µM | 104 µM·h | 6.3 µM | 312 µM·h | Cc1nc(N2CCC(N3CCOCC3=O)CC2)nc2ccc(NC(=O)/C=C/c3ccc(OC(F)(F)F)cc3)cc12 |  |
|  |  |  | 17.7 µM | 95.1 µM·h | 5.6 µM | 385 µM·h | Cc1nc(N2CCC(N3CCCC3=O)CC2)nc2ccc(NC(=O)/C=C/c3ccc(OC(F)(F)F)cc3)cc12 |  |
|  |  |  | 12.7 µM | 67.6 µM·h | 3.7 µM | 284 µM·h | Cc1nc(N2CCC(N3CCOC3=O)CC2)nc2ccc(NC(=O)/C=C/c3ccc(OC(F)(F)F)cc3)cc12 |  |
